Laboratory results: patent US20060205642A1, “Oral methods of treatment using proANF peptides” (priority 2005, published 2006)
Entries after “also recorded” stand apart in the source; their conditions may differ.

Legend:
[1] = system: particulate guanylate cyclase; assay: Particulate guanylate cyclase activity in the kidney; assay type: biochemical; settings: 1 μM; whole kidney homogenates, renal cortical and medullary membranes, isolated distal nephrons
Procedure: Testing is also carried out to determine biologic effects of these peptides by measuring their effects on particulate guanylate activity in the kidney.

[2] = Infusion into healthy human subjects; assay type: in vivo; settings: healthy humans
Procedure: Infusion of these peptides into healthy human subjects was performed as follows: Human pro-ANF 1-30, pro-ANF 31-67, and pro-ANF 79-98, and hANF (i.e., pro-ANF 99-126, were synthesized by Peninsula Laboratories (Belmont, Calif.). High pressure liquid chromatography (HPLC) analysis was performed on a sample of each of the four peptides to ensure purity. The peptides were dissolved in a sterile 0.9% saline solution to a concentration of 100 μg/ml and dispensed in 2 and 5 ml aliquots into sealed sterile vials. At the time of dispensing, randomly selected vials were tested for pyrogens and sterility. Prior to labeling the vials, the actual peptide content of the dispensed solution were determined by direct radioimmunoassay to account for any possible absorption of the respective peptides to the walls of the vials. All vials were then stored at −80° C. until thawed for individual study.
Normal healthy subjects were chosen on the basis of age (between 20 and 50 years), physical examination and biochemical screenings. The subjects consumed their normal diets prior to testing. The subjects fasted overnight and were tested in the morning in the seated position. Intravenous catheters were placed bilaterally for the administration of pro-hANF 1-30, pro-hANF 31-67, pro-hANF 79-98 and hANF (pro-hANF 99-126) and for blood sampling. After completion of a 45-minute equilibration period, there were three […] phases of the study: baseline, experimental infusion (60 minutes) and recovery (3 hours). The baseline phase consisted of two 30 minute urine collection periods, the experimental phase consisted of three 20 minute urine and plasma collection periods, and the recovery phase consisted of two 30 minute urine and plasma collection periods each hour for three hours post-infusion. Urine output was replaced on a milliliter per milliliter basis throughout the study by administering oral water or orange juice. Urine samples were obtained by voiding at the designated collection periods.
The 36 subjects were divided into 6 groups. One group (i.e., the control group) received a placebo infusion of 0.9% sodium chloride during the experimental infusion phase. […] The four remaining groups of six subjects each received human pro-hANF 1-30, pro-hANF 31-67, pro-hANF 79-98 and HANF. The four groups received the peptides by continuous infusion at the rate of 0.1 μg/kg per minute. The volume administered per hour during the experimental infusion phase was 10 ml for all four peptides and the placebo. All infusions were given by a constant-rate infusion pump, with the final concentrations of prohANFs adjusted for the subjects' body weight. The subjects heart rate and cuff blood pressure were taken at 5 minute intervals throughout the study. The excreted urine was analyzed for sodium concentration.

Question: What does the source list for “H-EVVPPQVLSEPNEEAGAALSPLPEVPPWTGEVSPAQR-OH [proANF 31-67]”?
Answer: particulate guanylate cyclase activity [1]: enhance; duration of sodium excreting effects compared to ANF [2]: significantly (P<0.001) prolonged compared to ANF; also recorded: last significantly (P<0.001) longer than ANF's effects; increase in urine volume (in words) ([2]; 100 ng/kg body wt per minute for 1 hour i.v., n=6, ANOVA): significant; sodium excretion (in words) ([2]; 100 ng/kg body wt per minute for 60 minutes, vs baseline): significantly (P<0.05) increased; systolic and diastolic blood pressures ([2]; 100 ng/kg body wt per minute i.v. for 60 min, n=6): significant; also recorded: lowers blood pressure the most
